Laboratory results from paper PMC10410440, “Preclinical PK investigation of a novel IDO1/TDO dual inhibitor—SHR9146 in mouse plasma and tissues by LC-MS/MS” (Frontiers in Oncology, 2023).
Values joined by “and” are separate entries in the source; they are usually repeats but may differ in a detail not shown here. Equal values may be shown once. “Also recorded” adds a separate entry of the source. Read-outs that look alike come from different tables or passages of the source.

Experiment: Plasma pharmacokinetics of SHR9146 in mice (LC-MS/MS, non-compartmental analysis)
Type: in vivo, ICR mice
Details: for AUC(0-t): read-out: AUC0-t; for half-life: read-out: t1/2 (converted); for Cmax: read-out: Cmax; for Tmax: read-out: Tmax
Method: ICR mice with body weight 16–26 g were supplied by Shanghai Lingchang Biotechnology Co., Ltd. (animal breeding license number SCXK (Shanghai) 2013-0018) and housed at Shanghai Institute of Materia Medica, Chinese Academy of Sciences [animal use license number SYXK (Shanghai) 2015-0027]. The mice used in this study were fasted overnight for 12 h but had free access to water. Food was supplied 4 h post-dose. All experiments in this study were conducted in accordance with the Guidelines for the Care and Use of Laboratory Animals of Shanghai Institute of Materia Medica, Chinese Academy of Sciences.
A total of 30 mice were randomly assigned into five groups with equal numbers, males and females. One group was intravenously administrated with 5 mg/kg SHR9146 dissolved in […] plus 95% saline (adjusted pH to 4.0) under sterile conditions. The remaining four groups were administered respectively with a single dose of 20 , 40, or 80 mg/kg or multiple doses of 20 mg/kg twice daily for 7 days, by oral gavage of SHR9146 dissolved in 0.5% CMC-Na. Blood samples were obtained from the fossa orbitalis vein at 15 and 30 min and 1.0, 2.0, 4.0, 6.0, 8.0, 10.0, and 24.0 h after oral gavage administration. An additional 5-min time point was included for iv injection, as well as the pre-drug administration time points on the fifth, sixth, and seventh days in the multiple-dose group. The blood samples were collected in EDTA K2 anticoagulant blood collection tubes and centrifuged at 1,000 rpm for 5 min at 4°C. The supernatant plasma samples were thus produced.
Briefly as follows, an aliquot of 25-μL plasma or tissue homogenate was spiked with 100 μL of internal standard solution (1 μg/mL for plasma, 0.2 μg/mL for tissue homogenate) and 300 μL of methanol added and vortex mixed for 60 s. The mixture was then centrifuged at 14,000 rpm at 4°C for 5.0 min, and the supernatant was diluted with methanol–water (4:1, v/v) in a ratio of 1:9 for the plasma or 1:1 for the tissue homogenate, and 5 μL of the resulting solution was injected for the LC-MS/MS analysis.
The pharmacokinetic parameters of SHR9146 in mouse plasma were estimated by Phoenix 1.4 software using a non-compartmental model.
The mean concentration–time curves of SHR9146 in mouse plasma after a single oral gavage dose of 20, 40, or 80 mg/kg, or a single intravenous dose of 5 mg/kg, or the 7th-day steady state after twice-daily multiple oral doses of 20 mg/kg are shown in Figure 5 (Table S6).

[1] = female, ICR, mouse, plasma, iv, 5 mg/kg, 5 mg/kg i.v. single dose, female mice, plasma
[2] = female, ICR, mouse, plasma, po, 20 mg/kg, 20 mg/kg i.g. bid, 7 days (7th-day steady state), female mice, plasma
[3] = female, ICR, mouse, plasma, po, 20 mg/kg, 20 mg/kg i.g. single dose, female mice, plasma
[4] = female, ICR, mouse, plasma, po, 40 mg/kg, 40 mg/kg i.g. single dose, female mice, plasma
[5] = female, ICR, mouse, plasma, po, 80 mg/kg, 80 mg/kg i.g. single dose, female mice, plasma
[6] = male, ICR, mouse, plasma, iv, 5 mg/kg, 5 mg/kg i.v. single dose, male mice, plasma
[7] = male, ICR, mouse, plasma, po, 20 mg/kg, 20 mg/kg i.g. bid, 7 days (7th-day steady state), male mice, plasma
[8] = male, ICR, mouse, plasma, po, 20 mg/kg, 20 mg/kg i.g. single dose, male mice, plasma
[9] = male, ICR, mouse, plasma, po, 40 mg/kg, 40 mg/kg i.g. single dose, male mice, plasma
[10] = male, ICR, mouse, plasma, po, 80 mg/kg, 80 mg/kg i.g. single dose, male mice, plasma
[11] = single oral dosing 20 to 80 mg/kg pooled, mouse plasma, n=6

OCCn1cc(-c2ccc(N3CCC([C@H]4c5c(F)cccc5-c5cncn54)CC3)cc2)cn1 [SHR9146]
MRT inf (both sexes, ICR, mouse, po, 80 mg/kg i.g. single dose, all mice (Totol, 3 male + 3 female), plasma, read-out: MRT0-∞): 4.6 h | AUC(0-inf) (female, ICR, mouse, plasma, iv, 5 mg/kg, 5 mg/kg i.v. single dose, female mice): 6910 ng·h/mL | AUC(0-t) [1]: 6800 ng·h/mL | half-life [1]: 0.665 h | AUC(0-inf) (female, ICR, mouse, plasma, po, 20 mg/kg, 20 mg/kg i.g. bid, 7 days (7th-day steady state), female mice): 24300 ng·h/mL | AUC(0-t) [2]: 24200 ng·h/mL | Cmax [2]: 10900 ± 737 ng/mL | Tmax [2]: 0.833 ± 0.289 h | half-life [2]: 0.951 h | AUC(0-inf) (female, ICR, mouse, plasma, po, 20 mg/kg, 20 mg/kg i.g. single dose, female mice): 17900 ng·h/mL | AUC(0-t) [3]: 16800 ng·h/mL | Cmax [3]: 9170 ± 4240 ng/mL | Tmax [3]: 0.5 ± 0.433 h | half-life [3]: 0.866 h | AUC(0-t) [4]: 12400 ng·h/mL | Cmax [4]: 9880 ± 3490 ng/mL | Tmax [4]: 1.83 ± 1.89 h | AUC(0-inf) (female, ICR, mouse, plasma, po, 80 mg/kg, 80 mg/kg i.g. single dose, female mice): 65900 ng·h/mL | AUC(0-t) [5]: 64700 ng·h/mL | Cmax [5]: 18700 ± 7300 ng/mL | Tmax [5]: 1.17 ± 0.764 h | half-life [5]: 1.49 h | AUC(0-inf) (male, ICR, mouse, plasma, iv, 5 mg/kg, 5 mg/kg i.v. single dose, male mice): 6950 ng·h/mL | AUC(0-t) [6]: 6730 ng·h/mL | half-life [6]: 0.761 h | AUC(0-inf) (male, ICR, mouse, plasma, po, 20 mg/kg, 20 mg/kg i.g. bid, 7 days (7th-day steady state), male mice): 24400 ng·h/mL | AUC(0-t) [7]: 24300 ng·h/mL | Cmax [7]: 10500 ± 993 ng/mL | Tmax [7]: 0.833 ± 0.289 h | half-life [7]: 1.06 h | AUC(0-inf) (male, ICR, mouse, plasma, po, 20 mg/kg, 20 mg/kg i.g. single dose, male mice): 14600 ng·h/mL | AUC(0-t) [8]: 14400 ng·h/mL | Cmax [8]: 10000 ± 2370 ng/mL | Tmax [8]: 0.417 ± 0.144 h | half-life [8]: 0.531 h | AUC(0-inf) (male, ICR, mouse, plasma, po, 40 mg/kg, 40 mg/kg i.g. single dose, male mice): 33400 ng·h/mL | AUC(0-t) [9]: 31000 ng·h/mL | Cmax [9]: 15000 ± 3240 ng/mL | Tmax [9]: 1.33 ± 0.577 h | half-life [9]: 1.66 h | AUC(0-inf) (male, ICR, mouse, plasma, po, 80 mg/kg, 80 mg/kg i.g. single dose, male mice): 75900 ng·h/mL | AUC(0-t) [10]: 75300 ng·h/mL | Cmax [10]: 15500 ± 6150 ng/mL | Tmax [10]: 1.83 ± 1.89 h | half-life [10]: 3.3 h | Vd, post-oral (oral 20 to 80 mg/kg pooled, mouse plasma, n=6): 3.427 ± 1.617 L/kg | dose dependence of oral pharmacokinetics (oral 20 to 80 mg/kg, mice, Cmax and AUC): dose proportionality; also recorded: linear pharmacokinetics characteristics; also recorded: dose-independent kinetics | CL, post-oral [11]: 19.8 ± 0.9 mL/min/kg and 19.769 ± 0.866 mL/min/kg | Vd, post-oral [11]: 3.43 ± 1.62 L/kg
